Four molecules from article PMC8571316 (Scientific Reports, 2021) can be followed below.

Peptide text beside a SMILES is read from it. * marks the point of attachment. Biotin = O=C1N[C@H]2[C@H](CS[C@H]2CCCCC(=O)*)N1; PEG4 = NCCOCCOCCOCCOCCC(=O)O

In assay [1] the target is T1, SARS-CoV-2 S1 protein (Severe acute respiratory syndrome coronavirus 2, UniProt P0DTC2).
T1 construct: immobilized SARS-CoV-2 S1 protein (His-tag, #S1N-C52H3, Acro Biosystems); His-tag; purchased Acro Biosystems S1N-C52H3
In kind it is binding.

For assay [2], the target named is T1, SARS-CoV-2 S1 protein. In words: biochemical. Type of assay: binding. The conditions noted are these: for kon: read-out: S1 Protein in Binding Buffer ka (1/Ms); for koff: read-out: S1 Protein in Binding Buffer kdis (1/s).

On to `CC(C)C[C@H](NC(=O)[C@H](CC(=O)O)NC(=O)[C@H](CCC(=O)O)NC(=O)[C@H](Cc1c[nH]c2ccccc12)NC(=O)[C@H](CCC(=O)O)NC(=O)[C@H](CC(C)C)NC(=O)[C@H](CC(N)=O)NC(=O)[C@H](Cc1ccccc1)NC(=O)[C@@H](NC(=O)[C@H](Cc1ccccc1)NC(=O)[C@H](CC(C)C)NC(=O)[C@H](Cc1ccccc1)NC(=O)[C@H](CC(C)C)NC(=O)[C@@H](NC(=O)[C@H](Cc1c[nH]c2ccccc12)NC(=O)[C@H](CC(=O)O)NC(=O)CCOCCOCCOCCOCCNC(=O)CCCC[C@@H]1SC[C@@H]2NC(=O)N[C@@H]21)[C@@H](C)O)C(C)C)C(=O)N[C@@H](Cc1ccccc1)C(=O)N[C@@H](Cc1ccc(O)cc1)C(=O)O` [Peptide P89] ({Biotin-PEG4}-DWTLFLFVFNLEWEDLFY-OH; C-terminus assumed), for which the “binding to S1 protein in ELISA-like assay (in words)” value (from here on “binding to S1 protein”) in assay [1] is “higher binding affinity than the original ACE2 fragment (SBP1)”. In assay [2], the kon was 7800 M⁻¹ s⁻¹ and the koff was 0.000969 s⁻¹.
For `CC[C@H](C)[C@H](NC(=O)[C@H](CCC(=O)O)NC(=O)[C@H](Cc1ccc(O)cc1)NC(=O)[C@H](Cc1ccc(O)cc1)NC(=O)[C@H](CCSC)NC(=O)[C@H](Cc1c[nH]cn1)NC(=O)[C@H](CCSC)NC(=O)[C@H](Cc1c[nH]c2ccccc12)NC(=O)[C@H](CCCCN)NC(=O)[C@H](CC(=O)O)NC(=O)[C@H](Cc1c[nH]c2ccccc12)NC(=O)[C@H](CCC(=O)O)NC(=O)[C@@H](NC(=O)[C@H](CCCCN)NC(=O)CCOCCOCCOCCOCCNC(=O)CCCC[C@@H]1SC[C@@H]2NC(=O)N[C@@H]21)[C@@H](C)O)C(=O)N[C@@H](Cc1ccccc1)C(=O)N[C@@H](Cc1ccc(O)cc1)C(=O)N[C@@H](CCC(=O)O)C(=O)N[C@@H](CC(=O)O)C(=O)O` [Peptide P100] ({Biotin-PEG4}-KTEWDKWMHMYYEIFYED-OH; C-terminus assumed), the “binding to S1 protein” value in assay [1] is “higher binding affinity than the original ACE2 fragment (SBP1)”. In assay [2], the kon was 3930 M⁻¹ s⁻¹ and the koff came out at 0.000728 s⁻¹.
The like results for `CC[C@H](C)[C@H](NC(=O)[C@H](CC(=O)O)NC(=O)[C@H](Cc1ccccc1)NC(=O)[C@H](CC(N)=O)NC(=O)CCOCCOCCOCCOCCNC(=O)CCCC[C@@H]1SC[C@@H]2NC(=O)N[C@@H]21)C(=O)N[C@@H](CC(C)C)C(=O)N[C@@H](CC(C)C)C(=O)N[C@@H](Cc1ccccc1)C(=O)N[C@H](C(=O)N[C@@H](Cc1ccccc1)C(=O)N[C@@H](CC(N)=O)C(=O)N[C@@H](Cc1ccc(O)cc1)C(=O)N[C@@H](CCC(=O)O)C(=O)N[C@@H](CCSC)C(=O)N[C@@H](CCC(=O)O)C(=O)N[C@@H](CC(=O)O)C(=O)N[C@@H](CCCCN)C(=O)N[C@@H](Cc1ccccc1)C(=O)N[C@@H](Cc1ccc(O)cc1)C(=O)O)C(C)C` [Peptide P168] ({Biotin-PEG4}-NFDILLFVFNYEMEDKFY-OH; C-terminus assumed) were, in that order, “higher binding affinity than the original ACE2 fragment (SBP1)”, 7490 M⁻¹ s⁻¹ and 0.00107 s⁻¹.
In the case of `CC[C@H](C)[C@H](NC(=O)[C@@H](NC(=O)[C@H](Cc1ccc(O)cc1)NC(=O)[C@H](Cc1ccccc1)NC(=O)[C@H](Cc1ccc(O)cc1)NC(=O)[C@@H](NC(=O)[C@H](CCC(=O)O)NC(=O)[C@H](CCSC)NC(=O)[C@H](Cc1c[nH]c2ccccc12)NC(=O)[C@H](Cc1c[nH]cn1)NC(=O)[C@H](CO)NC(=O)[C@H](Cc1ccccc1)NC(=O)[C@H](CCSC)NC(=O)[C@H](CC(=O)O)NC(=O)[C@H](Cc1c[nH]c2ccccc12)NC(=O)[C@H](CC(=O)O)NC(=O)[C@@H](NC(=O)[C@H](CCCCN)NC(=O)CCOCCOCCOCCOCCNC(=O)CCCC[C@@H]1SC[C@@H]2NC(=O)N[C@@H]21)[C@@H](C)O)[C@@H](C)CC)C(C)C)C(=O)O` [Peptide P180] ({Biotin-PEG4}-KTDWDMFSHWMEIYFYVI-OH; C-terminus assumed), the “binding to S1 protein” value in assay [1] is listed as “higher binding affinity than the original ACE2 fragment (SBP1)”. For the same molecule, in assay [2], the kon stood at 3830 M⁻¹ s⁻¹ and the koff is 0.000929 s⁻¹.
